# Patent US20230210853A1 (Halia Therapeutics, Inc., priority 2020, published 2023)
# Read-outs that look alike come from different tables or passages of the source.
# How the values were obtained:
# [1] = target: T1, full-length recombinant human NEK7 (Homo sapiens, UniProt Q8TDX7); test: NEK7 enzymatic assay ([33P]-ATP, casein substrate); format: biochemical
# T1 construct: full-length recombinant human NEK7; GST (N); purchased SignalChem N09-10G; host or cells: Sf9 insect cells (baculovirus)
# In short: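 Serially diluted compounds (10 μM down to 0.5 nM, 3-fold) were preincubated 20 min at room temperature with N-terminal GST-NEK7 from Sf9 cells and casein in pH 7.5 Hepes/MgCl2/EGTA/Brij35/DTT buffer containing 1% DMSO. [33P]-ATP then started a 2 h room-temperature reaction, stopped by spotting onto P81 paper. IC50 came from percent activity remaining versus vehicle.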
# IL-1β release = IL-1β release assay (PMA-differentiated THP-1 cells, LPS + nigericin, cleaved IL-1β by JESS); format: cell-based; details: Homo sapiens
# Experimental: (§1) Approximately 1.5 million THP-1 cells were plated in each well of a 6-well TC plate and incubated with 40 nM PMA in RPMI (10% FBS, 1% Penstrep) for 24 hours. The media was then removed and cells were rested in RPMI (10% FBS, 1% Penstrep) for 24 hours after which time the media was removed and cells were pre-treated for 2 hours with various concentrations of compounds of interest (typically serial 3-fold dilution in RPMI +5% FBS, concentrations ranging from 1 μM to 0.5 nM) in RPMI (5% FBS). The media was again removed and cells were incubated with 250 ng/mL LPS and compounds of interest (concentrations as above) in RMPI (5% FBS) for 2 hours. The media was removed for a last time and cells were incubated with 20 μM nigericin and compounds of interest (concentrations as above) in Opti-MEM for 30 minutes. Cell media was then collected and the amount of cleaved IL-1β was determined using a JESS instrument (Protein Simple) and standard protocols. Cleaved 1-PD antibody was obtained from Cell Signaling (catalogue #83186S) and was used at 1:20 dilution in antibody diluent 2. Protein Simple 1× anti-Rabbit HRP secondary antibody was used along with Protein Simple luminol and peroxide for chemiluminescent detection. Primary antibody incubation time was increased from 30 minutes to 60 minutes.
# as §1, with “RPMI+5%” for “RPMI +5%”, “Il-1β” for “1-PD”
# [2] = comparative compounds of Structure (II)
# [3] = THP-1, comparative compounds of Structure (II), read-out: IL-1β release IC50
# [4] = Table 2a, recombinant human NEK7, casein substrate
# [5] = Table 2a, THP-1 cells, LPS + nigericin, read-out: II-1β release IC50
# [6] = Table 2e, recombinant human NEK7, casein substrate
# T1 sequence (Q8TDX7 whole entry): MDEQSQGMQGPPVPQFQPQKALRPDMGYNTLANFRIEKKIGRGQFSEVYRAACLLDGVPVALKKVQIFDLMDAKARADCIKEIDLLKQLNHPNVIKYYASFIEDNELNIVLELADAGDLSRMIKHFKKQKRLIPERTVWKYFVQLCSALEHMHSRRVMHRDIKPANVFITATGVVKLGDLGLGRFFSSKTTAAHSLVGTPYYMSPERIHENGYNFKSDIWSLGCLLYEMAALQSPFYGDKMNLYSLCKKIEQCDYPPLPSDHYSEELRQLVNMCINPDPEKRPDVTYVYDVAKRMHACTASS
"IC50 [1, 4] [µM]",IC50 (IL-1β release; [5]) [µM],"IC50 [1, 6] [µM]",SMILES,also measured
–,–,–,"CC(C)n1nc(-c2ccc3c(c2F)CCN3C(=O)Cc2cc(C(F)(F)F)ccc2F)c2c(N)ncnc21 [II-11, 1-(5-(4-amino-1-isopropyl-1H-pyrazolo[3,4-d]pyrimidin-3-yl)-4-fluoroindolin-l-yl)-2-(2-fluoro-5-(trifluoromethyl)phenyl)ethan-1-one]","IC50 [1, 2]: < 0.15 µM; IC50 (IL-1β release; [3]): > 1 µM"
–,–,–,"Nc1ncnc2c1c(-c1ccc3c(c1F)CCN3C(=O)Cc1cc(C(F)(F)F)ccc1F)nn2C1COC1 [II-12, 1-(5-(4-amino-1-(oxetan-3-yl)-1H-pyrazolo[3,4-d]pyrimidin-3-yl)-4-fluoroindolin-1-yl)-2-(2-fluoro-5-(trifluoromethyl)phenyl)ethan-1-one]","IC50 [1, 2]: < 0.15 µM; IC50 (IL-1β release; [3]): > 1 µM"
–,–,–,"Nc1ncnc2c1c(-c1ccc3c(c1F)CCN3C(=O)Cc1ccc(F)c(C(F)(F)F)c1)nn2C1CCOCC1 [II-14, 1-(5-(4-amino-1-(tetrahydro-2H-pyran-4-yl)-1H-pyrazolo[3,4-d]pyrimidin-3-yl)-4-fluoroindolin-1-yl)-2-(4-fluoro-3-(trifluromethyl)phenyl)ethan-1-one]","IC50 [1, 2]: < 0.15 µM; IC50 (IL-1β release; [3]): > 1 µM"
–,–,–,"Nc1ncnc2c1c(-c1ccc3c(c1Cl)CCN3C(=O)Cc1cc(C(F)(F)F)ccc1F)cn2C1CC1 [II-16, 1-(5-(4-amino-7-cyclopropyl-7H-pyrrolo[2,3-d]pyrimidin-5-yl)-4-chloroindolin-1-yl)-2-(2-fluoro-5-(trifluoromethyl)phenyl)ehtan-1-one]","IC50 [1, 2]: < 0.15 µM; IC50 (IL-1β release; [3]): > 1 µM"
–,–,–,"Nc1ncnc2c1c(-c1ccc3c(c1F)CCN3C(=O)Cc1cc(C(F)(F)F)ccc1F)cn2C1CC1 [II-17, 1-(5-(4-amino-7-cyclopropyl-7H-pyrrolo[2,3-d]pyrimidin-5-yl)-4-fluoroindolin-1-yl)-2-(2-fluoro-5-(trifluoromethyl)phenyl)ethan-1-one]","IC50 [1, 2]: < 0.15 µM; IC50 (IL-1β release; [3]): > 1 µM"
< 0.15,< 0.15,–,"CC(C)(C)c1cc(NC(=O)Nc2ccc(-c3nn(C4COC4)c4ncnc(N)c34)cc2F)on1 [Ia-12, 1-(4-(4-amino-1-(oxetan-3-yl)-1H-pyrazolo[3,4-d]pyrimidin-3-yl)-2-fluorophenyl)-3-(3-(tert-butyl)isoxazol-5-yl)urea]",–
< 0.15,< 0.15,–,"CC(C)(C)c1cc(NC(=O)Nc2ccc(-c3nn(C4CC4)c4ncnc(N)c34)cc2F)on1 [Ia-13, 1-(4-(4-amino-1-cyclopropyl-1H-pyrazolo[3,4-d]pyrimidin-3-yl)-2-fluorophenyl)-3-(3-(tert-butyl)isoxazol-5-yl)urea]",–
< 0.15,< 0.15,–,"CC(C)(C)c1cc(NC(=O)Nc2ccc(-c3nn(C4CCN(C5COC5)CC4)c4ncnc(N)c34)cc2F)on1 [Ia-14, 1-(4-(4-amino-1-(1-(oxetan-3-yl)piperidin-4-yl)-1H-pyrazolo[3,4-d]pyrimidin-3-yl)-2-fluorophenyl)-3-(3-(tert-butyl)isoxazol-5-yl)urea]",–
< 0.15,< 0.15,–,Nc1ncnc2c1c(-c1ccc(NC(=O)Nc3cc(C4(C(F)(F)F)CC4)no3)c(F)c1)nn2C1CC1 [Ia-21],–
< 0.15,< 0.15,–,"Nc1ncnc2c1c(-c1ccc(NC(=O)Nc3cc(C4(C(F)(F)F)CC4)on3)c(F)c1)nn2C1CC1 [Ia-25, 1-(4-(4-amino-1-cyclopropyl-1H-pyrazolo[3,4-d]pyrimidin-3-yl)-2-fluorophenyl)-3-(5-(1-(trifluoromethyl)cyclopropyl)isoxazol-3-yl)urea]",–
< 0.15,< 0.15,–,"CC(C)(C)c1cc(NC(=O)Nc2ccc(-c3nn(C4CC4)c4ccnc(N)c34)cc2F)on1 [Ia-30, 1-(4-(4-amino-1-cyclopropyl-1H-pyrazolo[4,3-c]pyridin-3-yl)-2-fluorophenyl)-3-(3-(tert-butyl)isoxazol-5-yl)urea]",–
< 0.15,0.151 to 0.3,–,"CC1(c2cc(NC(=O)Nc3ccc(-c4nn(C5CC5)c5ncnc(N)c45)cc3F)on2)CC1 [Ia-32, 1-(4-(4-amino-1-cyclopropyl-1H-pyrazolo[3,4-d]pyrimidin-3-yl)-2-fluorophenyl)-3-(3-(1-methylcyclopropyl)isoxazol-5-yl)urea]",–
0.501 to 1.5,0.301 to 0.5,–,"CC(C)(C)c1nnc(NC(=O)Nc2ccc(-c3nn(C4CC4)c4ncnc(N)c34)cc2F)s1 [Ia-33, 1-(4-(4-amino-1-cyclopropyl-1H-pyrazolo[3,4-d]pyrimidin-3-yl)-2-fluoropbenyl)-3-(5-(tert-butyl)-1,3,4-thiadiazol-2-yl)urea]",–
–,–,> 1.5,"O=C(Nc1ccc(CN2CCC2)c(C(F)(F)F)c1)Nc1ccc(Oc2ccnc3[nH]cc(Cl)c23)cc1F [Ie-31, 1-(4-(azetidin-1-ylmethyl)-3-(trifluoromethyl)phenyl)-3-(4-((3-chloro-1H-pyrrolo[2,3-b]pyridin-4-yl)oxy)-2-fluorophenyl)urea]",–
–,–,> 1.5,"O=C(Nc1ccc(CN2CC(F)(F)C2)c(C(F)(F)F)c1)Nc1ccc(Oc2ccnc3[nH]cc(Cl)c23)cc1F [Ie-32, 1-(4-((3-chloro-1H-pyrrolo[2,3-b]pyridin-4-yl)oxy)-2-fluorophenyl)-3-(4-((3,3-difluoroazetidin-1-yl)methyl)-3-(trifluoromethyl)phenyl)urea]",–
–,–,> 1.5,"CN1CC2CCC1CN2Cc1ccc(NC(=O)Nc2ccc(Oc3ccnc4[nH]cc(Cl)c34)cc2F)cc1C(F)(F)F (stereo not shown) [Ie-35, 1-(4-((3-chloro-1H-pyrrolo[2,3-b]pyridin-4-yl)oxy)-2-fluorophenyl)-3-(4-((5-methyl-2,5-diazabicyclo[2.2.2]octan-2-yl)methyl)-3-(trifluoromethyl)phenyl)urea]",–
–,–,> 1.5,"COc1cc(CN2CCN(C)CC2)ccc1NC(=O)Nc1ccc(Oc2ccnc3[nH]cc(Cl)c23)cc1F [Ie-40, 1-(4-((3-chloro-1H-pyrrolo[2,3-b]pyridin-4-yl)oxy)-2-fluorophenyl)-3-(2-methoxy-4-((4-methylpiperazin-1-yl)methyl)phenyl)urea]",–
–,–,> 1.5,"O=C(Nc1ccc(CN2CCN(CCO)CC2)c(C(F)(F)F)c1)Nc1ccc(Oc2ccnc3[nH]cc(Cl)c23)cc1F [Ie-41, 1-(4-((3-chloro-1H-pyrrolo[2,3-b]pyridin-4-yl)oxy)-2-fluorophenyl)-3-(4-((4-(2-hydroxyethyl)piperazin-1-yl)methyl)-3-(trifluoromethyl)phenyl)urea]",–
–,–,> 1.5,"COCCN1CCN(Cc2ccc(NC(=O)Nc3ccc(Oc4ccnc5[nH]cc(Cl)c45)cc3F)cc2C(F)(F)F)CC1 [Ie-42, 1-(4-((3-chloro-1H-pyrrolo[2,3-b]pyridin-4-yl)oxy)-2-fluorophenyl)-3-(4-((4-(2-methoxyethyl)piperazin-1-yl)methyl)-3-(trifluoromethyl)phenyl)urea]",–
–,–,> 1.5,"COc1cc(NC(=O)Nc2ccc(Oc3ccnc4[nH]cc(Cl)c34)cc2F)ccc1CN1CCN(C)CC1 [Ie-43, 1-(4-((3-chloro-1H-pyrrolo[2,3-b]pyridin-4-yl)oxy)-2-fluorophenyl)-3-(3-methoxy-4-((4-methylpiperazin-1-yl)methyl)phenyl)urea]",–

SMILES,"IC50 [1, 4] [µM]",IC50 (IL-1β release; [5]) [µM],"IC50 [1, 6] [µM]",also measured
"CN1C[C@H]2CC[C@@H](C1)N2Cc1ccc(NC(=O)Nc2ccc(Oc3ccnc4[nH]cc(Cl)c34)cc2F)cc1C(F)(F)F [Ie-33, 1-(4-((3-chloro-1H-pyrrolo[2,3-b]pyridin-4-yl)oxy)-2-fluorophenyl)-3-(4-(((1R,5S)-3-methyl-3,8-diazabicyclo[3.2.1]octan-8-yl)methyl)-3-(trifluoromethyl)phenyl)urea]",–,–,> 1.5,–
